The values that follow are results of earlier work, collected in patent publication US11701425B2, “Valerian composition and related methods” (Société des Produits Nestlé S.A., priority 2016, dated 2023).

The conditions of this data set: reported value, no test by the applicant.

SMILES strings stand for the structures.

Take `CCCC(CCC)C(=O)O` [valproic acid]: the pKa result is “about 5”.

Take `CC1=C2[C@H](/C=C(\C)C(=O)O)CC[C@@H](C)[C@H]2CC1` [valerenic acid]: the pKa entry was “about 5”.
